The record followed here is patent US20090275574A1, “NOVEL COMPOUNDS-300” (ASTRAZENECA AB, priority 2008, published 2009).

Molecules are shown by their SMILES. Some results are limits rather than exact numbers.

The target of test [1] is T1, hM1 (human Muscarinic receptor subtype 1) (Homo sapiens, UniProt P11229).
T1 construct: expressed in transfected cells; host or cells: CHO cells (ATCC)
T1 sequence (P11229 1-460): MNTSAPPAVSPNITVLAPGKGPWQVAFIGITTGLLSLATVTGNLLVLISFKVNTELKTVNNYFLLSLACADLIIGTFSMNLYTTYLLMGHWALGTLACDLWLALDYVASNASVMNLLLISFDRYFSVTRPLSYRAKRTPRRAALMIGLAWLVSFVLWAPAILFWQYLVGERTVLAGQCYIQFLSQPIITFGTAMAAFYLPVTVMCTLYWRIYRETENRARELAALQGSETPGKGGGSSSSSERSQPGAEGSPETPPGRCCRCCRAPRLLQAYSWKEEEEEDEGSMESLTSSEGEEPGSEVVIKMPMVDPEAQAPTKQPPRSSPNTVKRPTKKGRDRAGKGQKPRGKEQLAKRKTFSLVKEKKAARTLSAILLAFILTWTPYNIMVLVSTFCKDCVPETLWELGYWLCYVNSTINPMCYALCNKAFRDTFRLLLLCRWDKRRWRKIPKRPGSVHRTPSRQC
As to the kind of experiment: Human M1 calcium mobilization FLIPR assay. The note with it: hM1 expressed in CHO cells, intracellular Ca2+ release (FLIPR). The test is classed as cell-based. The method, then:
Human M1, rat M1, Human M3 and Human M5 Calcium Mobilization FLIPR™ Assay The compound activity in the present invention (EC50 or IC50) is measured using a 384 plate-based imaging assay that monitors drug induced intracellular Ca^2+ release in whole cells. Activation of hM1 (human Muscarinic receptor subtype 1, gene bank access NM_000738), rM1 (rat Muscarinic receptor subtype 1, gene bank access NM_080773), hM3 (human Muscarinic receptor subtype 3, gene bank access NM_000740NM_000740) and hM5 (human Muscarinic receptor subtype 5, gene bank access NM_0121258), receptors expressed in CHO cells (Chinese hamster ovary cells, ATCC) is quantified in a Molecular Devices FLIPR IITM instrument as an increase in fluorescent signal. Inhibition of hM3 and hM5 by compounds is determined by the decrease in fluorescent signal in response to 2 nM acetylcholine activation. […] Prior to experiment, the cell culture medium is removed from the plates by inversion. […] Plates are incubated at 37° C. for 60 minutes prior to start the experiment. The incubation is terminated by washing the cells four times in assay buffer, leaving a residual 25 μl buffer per well. Cell plates are then transferred to the FLIPR, ready for compound additions. The day of experiment, acetylcholine and compounds are diluted in assay buffer in three-fold concentration range (10 points serial dilution) for addition by FLIPR instrument. For all calcium assays, a baseline reading is taken for 10 seconds followed by the addition of 12.5 μl of compounds, resulting in a total well volume of 37.5 μl. Data is collected every second for 60 pictures and then every 6 seconds for 20 pictures prior to the addition of agonist. For hM3 and hM5, before agonist addition, a second baseline reading is taken for 10 seconds followed by the addition of 12.5 μl of agonist or buffer, producing a final volume of 50 μl. After agonist stimulation, the FLIPR continues to collect data every second for 60 pictures and then every 6 seconds for 20 pictures. The fluorescence emission is read using filter 1 (emission 510-570 nm) by the FLIPR on board CCD camera. Calcium mobilization output data are calculated as the maximal relative fluorescence unit (RFU) minus the minimal value for both compound and agonist reading frame (except for hM1 and rM1 using only the maximal RFU). Data are analyzed using sigmoidal fits of a non-linear curve-fitting program (XLfit version 4.2.2 Excel add-in version 4.2.2 build 18 math 1Q version 2.1.2 build 18). All pEC50 and pIC50 values are reported as arithmetic means±standard error of mean of ‘n’ independent experiments.
For orientation: A change in cytosolic calcium serves as a functional read-out for many receptors and channels.

Another test has as its target T2, cloned human M2 receptor (Homo sapiens, UniProt P08172).
T2 construct: purchased Perkin-Elmer RBHM2M; host or cells: Chinese hamster ovary cells (CHO), membranes
T2 sequence (P08172 1-466): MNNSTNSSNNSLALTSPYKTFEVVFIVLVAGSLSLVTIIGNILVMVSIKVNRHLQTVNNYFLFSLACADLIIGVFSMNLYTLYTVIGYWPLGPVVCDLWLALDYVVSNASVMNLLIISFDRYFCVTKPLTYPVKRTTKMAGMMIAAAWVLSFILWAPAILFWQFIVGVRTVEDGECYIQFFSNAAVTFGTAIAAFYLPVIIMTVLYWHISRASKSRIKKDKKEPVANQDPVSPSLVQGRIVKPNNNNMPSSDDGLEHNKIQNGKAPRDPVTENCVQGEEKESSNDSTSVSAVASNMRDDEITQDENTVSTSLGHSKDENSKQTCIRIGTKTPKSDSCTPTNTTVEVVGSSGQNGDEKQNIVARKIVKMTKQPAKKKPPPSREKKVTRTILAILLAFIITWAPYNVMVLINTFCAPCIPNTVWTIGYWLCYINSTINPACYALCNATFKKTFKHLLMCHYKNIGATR
As to the kind of experiment: hM2 receptor GTPγS binding. The note with it: CHO membranes expressing hM2, [35S]GTPγS binding. The test is classed as biochemical. The method, then:
hM2 Receptor GTPγS Binding Membranes produced from Chinese hamster ovary cells (CHO) expressing the cloned human M2 receptor (human Muscarinic receptor subtype 2, gene bank access NM_000739), are obtained from Perkin-Elmer (RBHM2M). The membranes are thawed at 37° C., passed 3 times through a 23-gauge blunt-end needle, diluted in the GTPγS binding buffer (50 mM Hepes, 20 mM NaOH, 100 mM NaCl, 1 mM EDTA, 5 mM MgCl2, pH 7.4, 100 μM DTT). The EC50, IC50 and Emax of the compounds of the invention are evaluated from 10-point dose-response curves (three fold concentration range) done in 60 μl in 384-well non-specific binding surface plate (Corning). Ten microliters from the dose-response curves plate (5× concentration) are transferred to another 384 well plate containing 25 μl of the following: 5 μg of hM2 membranes, 500 μg of Flashblue beads (Perkin-Elmer) and GDP 25 μM. An additional 15 μl containing 3.3× (60,000 dpm) of GTPγ^35S (0.4 nM final) are added to the wells resulting in a total well volume of 50 μl. Basal and maximal stimulated [^35S]GTPγS binding are determined in absence and presence of 30 μM final of acetylcholine agonist. The membranes/beads mix are pre-incubated for 15 minutes at room temperature with 25 μM GDP prior to distribution in plates (12.5 μM final). The reversal of acetylcholine-induced stimulation (2 μM final) of [^35S]GTPγS binding is used to assay the antagonist properties (IC50) of the compounds. The plates are incubated for 60 minutes at room temperature then centrifuged at 400 rpm for 5 minutes. The radioactivity (cpm) is counted in a Trilux (Perkin-Elmer). Values of EC50, IC50 and Emax are obtained using sigmoidal fits of a non-linear curve-fitting program (XLfit version 4.2.2 Excel add-in version 4.2.2 build 18 math 1Q version 2.1.2 build 18) of percent stimulated [^35S]GTPγS binding vs. log(molar ligand). All pEC50 and pIC50 values are reported as arithmetic means±standard error of mean of ‘n’ independent experiments.
(In general: GTPγS resists hydrolysis and so accumulates on activated G proteins.)

A word on the EC50: it is the concentration giving half of the maximal effect. With `CCOCC1CCC(N2CCC(N3C(=O)NC[C@H]4CCCC[C@@H]43)CC2)CC1` (mixture of isomers) [Example 08, (4aR,8aS)-1-(1-(4-(ethoxymethyl)cyclohexyl)piperidin-4-yl)octahydroquinazolin-2(1H)-one], the concentration giving a half-maximal response (EC50) was determined as 0.0052 µM in test [1] and 0.35 µM on cloned human M2 receptor.
The corresponding values for `CC(C)OCC1CCC(N2CCC(N3C(=O)CO[C@H]4CCCC[C@@H]43)CC2)CC1` (mixture of isomers) [Example 15, (4aS,8aS)-4-(1-(4-(isopropoxymethyl)cyclohexyl)piperidin-4-yl)hexahydro-2H-benzo[b][1,4]oxazin-3(4H)-one] are 0.01 µM and 3.5 µM.
The corresponding values for `CCCOCC1CCC(N2CCC(N3C(=O)NC[C@H]4CCCC[C@@H]43)CC2)CC1` (single isomer, unassigned) [Example 01] are 0.021 µM and 7.7 µM.
The like results for `CCCOCC1CCC(N2CCC(N3C(=O)NC[C@H]4CCCC[C@@H]43)CC2)CC1` (single isomer, unassigned) [Example 02] were, in that order, 0.002 µM and 0.24 µM.
For `CC(C)OCC1CCC(N2CCC(N3C(=O)NC[C@H]4CCCC[C@@H]43)CC2)CC1` (single isomer, unassigned) [Example 04], the EC50 in test [1] was found to be 0.0032 µM; on cloned human M2 receptor it was 0.66 µM.
The like results for `CCCOC1CCC(N2CCC(N3C(=O)NC[C@H]4CCCC[C@@H]43)CC2)CC1` (single isomer, unassigned) [Example 06] were, in that order, 0.041 µM and 2.5 µM.
Consider `CCOCC1CCC(N2CCC(N3C(=O)CO[C@H]4CCCC[C@@H]43)CC2)CC1` (single isomer, unassigned) [Example 13], for which the concentration for a half-maximal effect (EC50) is 0.017 µM in test [1] and above 21 µM on cloned human M2 receptor.
The corresponding values for `CCOCC1CCC(N2CCC(N3C(=O)CO[C@H]4CCCC[C@@H]43)CC2)CC1` (single isomer, unassigned) [Example 14] are 0.0099 µM and 2.8 µM.
The like results for `CCCOC1CCC(N2CCC(N3C(=O)CO[C@H]4CCCC[C@@H]43)CC2)CC1` (single isomer, unassigned) [Example 17] were, in that order, 0.088 µM and above 48 µM.
As for `CC(C)OCC1CCC(N2CCC(N3C(=O)CO[C@H]4CCCC[C@@H]43)CC2)CC1` (single isomer, unassigned) [Example 18], the half-maximal effective concentration (EC50) was 0.0078 µM in test [1] and 3.5 µM at cloned human M2 receptor.
In the case of `CC(C)OCC1CCC(N2CCC(N3C(=O)CO[C@H]4CCCC[C@@H]43)CC2)CC1` (single isomer, unassigned) [Example 19], the EC50 in test [1] is 0.014 µM; at cloned human M2 receptor, 8.7 µM.
The like results for `O=C1CO[C@H]2CCCC[C@@H]2N1C1CCN(C2CCC(COCC3CC3)CC2)CC1` (single isomer, unassigned) [Example 22] were, in that order, 0.0056 µM and 1 µM.
The corresponding values for `O=C1CO[C@H]2CCCC[C@@H]2N1C1CCN(C2CCC(COCC3CC3)CC2)CC1` (single isomer, unassigned) [Example 23] are 0.038 µM and above 1.2 µM.
The like results for `O=C1CO[C@H]2CCCC[C@@H]2N1C1CCN(C2CCC(COCCF)CC2)CC1` (single isomer, unassigned) [Example 24] were, in that order, 0.041 µM and above 5.7 µM.
With `O=C1CO[C@H]2CCCC[C@@H]2N1C1CCN(C2CCC(COCCF)CC2)CC1` (single isomer, unassigned) [Example 25], the concentration for a half-maximal effect (EC50) was 0.0096 µM in test [1] and above 2.7 µM at cloned human M2 receptor.
The like results for `O=C1CO[C@H]2CCCC[C@@H]2N1C1CCN(C2CCC(COCC(F)F)CC2)CC1` (single isomer, unassigned) [Example 26] were, in that order, 0.017 µM and above 3.6 µM.
Take `O=C1CO[C@H]2CCCC[C@@H]2N1C1CCN(C2CCC(COCC(F)F)CC2)CC1` (single isomer, unassigned) [Example 27]: the results for the EC50 (in test [1]; on cloned human M2 receptor) were 0.0042 µM and 0.87 µM, respectively.
The like results for `CC(C)OCC1CCC(N2CCC(N3C(=O)CO[C@H]4CCC(F)(F)C[C@@H]43)CC2)CC1` (single isomer, unassigned) [Example 37] were, in that order, 0.034 µM and above 13 µM.
On to `CC(C)OCC1CCC(N2CCC(N3C(=O)CO[C@H]4CCC(F)(F)C[C@@H]43)CC2)CC1` (single isomer, unassigned) [Example 38], for which the concentration for a half-maximal effect (EC50) in test [1] was 0.018 µM; on cloned human M2 receptor it was above 10 µM.
The corresponding values for `CCOCC1CC(N2CCC(N3C(=O)CO[C@H]4CCCC[C@@H]43)CC2)C1` (single isomer, unassigned) [Example 39] are 0.033 µM and 5 µM.
The corresponding values for `O=C1CO[C@H]2CCCC[C@@H]2N1C1CCN(C2CC(COCC3CCC3)C2)CC1` (single isomer, unassigned) [Example 40] are 0.057 µM and 4.4 µM.
In the case of `CCOCC1CCC(N2CCC(N3C(=O)CO[C@H]4CCCC[C@@H]43)CC2)C1` (single isomer, unassigned) [Example 44], the EC50 in test [1] is 0.00097 µM; on cloned human M2 receptor, 1.6 µM.
Consider `CCOCC1CCC(N2CCC(N3C(=O)CO[C@H]4CCCC[C@@H]43)CC2)C1` (single isomer, unassigned) [Example 45], for which the EC50 came to 0.048 µM in test [1] and 6.1 µM at cloned human M2 receptor.
The corresponding values for `O=C1COC2CCCC2N1C1CCN([C@H]2CC[C@@H](COCC3CC3)CC2)CC1` (single isomer, unassigned) [Example 48] are 0.015 µM and 2.2 µM.
